Source: article PMC5813499 (Bioorganic & medicinal chemistry, 2017)

Columns and labels:
[1] = target: allosteric site of the mGluR5 receptor (Homo sapiens, UniProt P41594); experiment: PDSP binding at the allosteric site of the mGluR5 receptor; settings: binding affinity at allosteric site; type of constant not given
[2] = target: L-type Voltage gated calcium Channel (VGCC) (Rattus norvegicus, UniProt P22002); experiment: PDSP binding at the L-type voltage gated calcium channel; settings: for VGCC (IC50, nM): PDSP screening
Sequence of L-type Voltage gated calcium Channel (VGCC) (P22002 whole entry): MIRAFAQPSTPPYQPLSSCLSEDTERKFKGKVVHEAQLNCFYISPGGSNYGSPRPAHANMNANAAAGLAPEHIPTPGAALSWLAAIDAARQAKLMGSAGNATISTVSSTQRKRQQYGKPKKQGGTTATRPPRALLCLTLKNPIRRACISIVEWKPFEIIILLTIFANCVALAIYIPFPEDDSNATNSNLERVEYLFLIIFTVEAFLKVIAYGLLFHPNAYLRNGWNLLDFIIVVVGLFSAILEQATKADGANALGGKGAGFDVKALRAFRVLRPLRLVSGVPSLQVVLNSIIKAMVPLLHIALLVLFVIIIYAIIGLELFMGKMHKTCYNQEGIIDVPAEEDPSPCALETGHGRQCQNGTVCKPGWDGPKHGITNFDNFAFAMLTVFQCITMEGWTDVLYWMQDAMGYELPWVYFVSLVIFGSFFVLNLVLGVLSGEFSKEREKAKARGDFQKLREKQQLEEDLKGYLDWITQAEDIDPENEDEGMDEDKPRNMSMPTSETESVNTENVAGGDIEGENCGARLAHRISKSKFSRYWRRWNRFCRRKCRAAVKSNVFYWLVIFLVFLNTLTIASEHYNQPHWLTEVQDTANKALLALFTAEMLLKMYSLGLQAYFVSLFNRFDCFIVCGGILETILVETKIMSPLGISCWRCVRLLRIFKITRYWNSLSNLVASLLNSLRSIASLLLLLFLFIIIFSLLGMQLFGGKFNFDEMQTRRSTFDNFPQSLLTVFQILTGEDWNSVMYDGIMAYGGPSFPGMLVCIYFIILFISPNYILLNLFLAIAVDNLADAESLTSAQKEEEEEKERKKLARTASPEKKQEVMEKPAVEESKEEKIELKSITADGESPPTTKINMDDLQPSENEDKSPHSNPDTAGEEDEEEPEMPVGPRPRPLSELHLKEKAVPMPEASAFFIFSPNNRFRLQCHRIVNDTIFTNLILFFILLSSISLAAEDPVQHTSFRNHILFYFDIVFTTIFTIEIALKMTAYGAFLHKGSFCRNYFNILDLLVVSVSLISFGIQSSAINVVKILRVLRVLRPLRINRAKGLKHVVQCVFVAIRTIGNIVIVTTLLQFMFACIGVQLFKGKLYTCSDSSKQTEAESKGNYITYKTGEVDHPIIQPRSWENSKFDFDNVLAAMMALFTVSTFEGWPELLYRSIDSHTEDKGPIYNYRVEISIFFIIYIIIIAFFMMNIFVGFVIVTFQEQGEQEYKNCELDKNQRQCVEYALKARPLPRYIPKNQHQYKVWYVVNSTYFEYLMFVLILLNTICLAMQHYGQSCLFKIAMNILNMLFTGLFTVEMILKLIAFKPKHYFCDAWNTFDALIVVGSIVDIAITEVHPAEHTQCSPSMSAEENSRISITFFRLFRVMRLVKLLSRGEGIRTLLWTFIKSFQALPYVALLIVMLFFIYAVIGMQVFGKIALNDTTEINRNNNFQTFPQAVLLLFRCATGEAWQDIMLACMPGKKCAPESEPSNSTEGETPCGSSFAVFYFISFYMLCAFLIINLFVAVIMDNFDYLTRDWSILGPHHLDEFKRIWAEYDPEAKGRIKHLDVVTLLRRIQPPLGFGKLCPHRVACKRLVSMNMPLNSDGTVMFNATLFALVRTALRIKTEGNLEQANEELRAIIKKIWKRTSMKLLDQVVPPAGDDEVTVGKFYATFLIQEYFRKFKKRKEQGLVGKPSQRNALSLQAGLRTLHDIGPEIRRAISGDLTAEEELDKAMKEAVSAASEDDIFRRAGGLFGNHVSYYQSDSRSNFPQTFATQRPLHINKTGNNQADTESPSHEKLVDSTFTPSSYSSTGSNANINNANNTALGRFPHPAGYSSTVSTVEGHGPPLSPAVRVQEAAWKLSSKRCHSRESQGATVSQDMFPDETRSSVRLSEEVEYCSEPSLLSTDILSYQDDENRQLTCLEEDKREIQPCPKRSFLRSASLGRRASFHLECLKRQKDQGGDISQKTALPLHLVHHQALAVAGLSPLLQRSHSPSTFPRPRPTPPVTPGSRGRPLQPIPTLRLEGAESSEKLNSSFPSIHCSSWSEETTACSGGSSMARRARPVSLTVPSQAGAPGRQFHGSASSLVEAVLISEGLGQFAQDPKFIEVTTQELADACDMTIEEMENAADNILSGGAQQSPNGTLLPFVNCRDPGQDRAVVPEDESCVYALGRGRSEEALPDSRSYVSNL

Sequence of allosteric site of the mGluR5 receptor (P41594 21-1212): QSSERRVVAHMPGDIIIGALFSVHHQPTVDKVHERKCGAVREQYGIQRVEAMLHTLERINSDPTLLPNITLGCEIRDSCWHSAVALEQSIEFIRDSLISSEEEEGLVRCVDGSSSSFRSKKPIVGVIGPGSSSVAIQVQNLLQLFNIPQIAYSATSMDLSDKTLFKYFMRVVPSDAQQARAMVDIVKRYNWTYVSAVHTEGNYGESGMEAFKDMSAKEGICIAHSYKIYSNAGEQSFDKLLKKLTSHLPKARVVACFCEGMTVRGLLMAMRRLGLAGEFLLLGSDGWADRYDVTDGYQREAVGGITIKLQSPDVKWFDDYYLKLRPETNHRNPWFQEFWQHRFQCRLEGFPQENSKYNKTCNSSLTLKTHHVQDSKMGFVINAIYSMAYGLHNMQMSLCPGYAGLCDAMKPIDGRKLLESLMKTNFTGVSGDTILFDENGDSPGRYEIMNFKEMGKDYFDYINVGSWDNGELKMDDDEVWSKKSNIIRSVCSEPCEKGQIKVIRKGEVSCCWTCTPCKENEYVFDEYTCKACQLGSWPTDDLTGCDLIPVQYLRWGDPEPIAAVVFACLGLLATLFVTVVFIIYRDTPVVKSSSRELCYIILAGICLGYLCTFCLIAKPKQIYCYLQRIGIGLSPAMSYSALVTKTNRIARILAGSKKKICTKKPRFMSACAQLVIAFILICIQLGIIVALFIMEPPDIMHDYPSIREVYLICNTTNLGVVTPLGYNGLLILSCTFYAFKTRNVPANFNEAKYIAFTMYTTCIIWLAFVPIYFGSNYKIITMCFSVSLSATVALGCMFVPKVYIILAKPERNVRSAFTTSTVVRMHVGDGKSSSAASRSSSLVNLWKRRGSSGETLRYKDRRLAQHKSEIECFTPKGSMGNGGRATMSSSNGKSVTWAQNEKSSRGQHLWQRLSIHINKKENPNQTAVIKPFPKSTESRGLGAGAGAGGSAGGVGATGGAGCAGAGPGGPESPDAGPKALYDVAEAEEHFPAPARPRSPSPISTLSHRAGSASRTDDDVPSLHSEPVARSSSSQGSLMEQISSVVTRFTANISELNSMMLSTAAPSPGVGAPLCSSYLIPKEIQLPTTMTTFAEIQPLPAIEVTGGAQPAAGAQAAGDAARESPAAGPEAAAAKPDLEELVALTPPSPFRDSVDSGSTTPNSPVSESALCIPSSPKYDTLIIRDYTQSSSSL

Row | SMILES | mGluR5 [1] [µM] | mGluR5 (nM) [1] | also measured
1 | CCOC(=O)C1=C(C)NC(C)=C(C(=O)OCC)C1c1c(-c2ccccc2Br)noc1C [1b, 4-[3-(o-Bromo-phenyl)-5-methyl-isoxazol-4-yl]-2,6-dimethyl-1,4-dihydro-pyridine-3,5-dicarboxylic acid diethyl ester] | 1.524 |  | 
2 | CCOC(=O)C1=C(C)NC(C)=C(C(=O)OCc2cn(CCc3ccccc3)nn2)C1c1c(-c2ccc(Br)cc2)noc1C (stereo not shown) [compound 5, 4-[3-(p-Bromo-phenyl)-5-methyl-isoxazol-4-yl]-2,6-dimethyl-1,4-dihydro-pyridine 3,5-dicarboxylic acid 3-ethyl ester 5-(1-phenethyl-1H-[1,2,3]triazol-4-ylmethyl) ester] | 1.972 |  | 
3 | CCOC(=O)c1c(C)nc(C)c(C(=O)OCC)c1-c1c(-c2ccccc2)noc1C [compound 6, 2,6-dimethyl-4-(5-methyl-3-phenyl-isoxazol-4-yl)-pyridine-3,5-dicarboxylic acid diethyl ester] |  |  | VGCC (IC50, nM) [2]: essentially bereft of activity
4 | CCOC(=O)C1=C(C)NC(C)=C(C(=O)OCC)C1c1c(-c2cccc(Br)c2)noc1C [1c, 4-[3-(m-Bromo-phenyl)-5-methyl-isoxazol-4-yl]-2,6-dimethyl-1,4-dihydro-pyridine-3,5-dicarboxylic acid diethyl ester] |  | >10,000 nM | 
5 | CCOC(=O)C1=C(C)NC(C)=C(C(=O)OCC)C1c1c(-c2ccc(Br)cc2)noc1C [1d, 4-[3-(p-bromo-phenyl)-5-methyl-isoxazol-4-yl]-2,6-dimethyl-1,4-dihydro-pyridine-3,5-dicarboxylic acid diethyl ester] |  | >10,000 nM | VGCC potency ratio of 1d versus o-Br 1b ([2]; fold more potent than 1b): over 25 times

Continued, in another order:

Row | mGluR5 [1] [µM] | mGluR5 (nM) [1] | SMILES | also measured
6 |  | >10,000 nM | CCOC(=O)C1=C(C)NC(C)=C(C(=O)OCc2cn(CCOCCOCCOCCOCCOCCn3cc(COC(=O)C4=C(C)NC(C)=C(C(=O)OCC)C4c4c(-c5ccccc5)noc4C)nn3)nn2)C1c1c(-c2ccccc2)noc1C (stereo not shown) [4a, 3-(1-{17-[4-({[5-(Ethoxycarbonyl)-2,6-dimethyl-4-(5-methyl-3-phenyl-1,2-oxazol-4-yl)-1,4-dihydropyridin-3-yl]carbonyloxy}methyl)-1H-1,2,3-triazol-1-yl]-3,6,9,12,15-pentaoxaheptadecan-1-yl}-1H-1,2,3-triazol-4-yl)methyl 5-ethyl 2,6-dimethyl-4-(5-methyl-3-phenyl-1,2-oxazol-4-yl)-1,4-dihydropyridine-3,5-dicarboxylate] | 
7 | 8.638 |  | CCOC(=O)C1=C(C)NC(C)=C(C(=O)OCc2cn(CCOCCOCCOCCOCCOCCn3cc(COC(=O)C4=C(C)NC(C)=C(C(=O)OCC)C4c4c(-c5cccc(Br)c5)noc4C)nn3)nn2)C1c1c(-c2cccc(Br)c2)noc1C (stereo not shown) [4c, 3-[1-(17-{4-[({4-[3-(m-bromophenyl)-5-methyl-1,2-oxazol-4-yl]-5-(ethoxycarbonyl)-2,6-dimethyl-1,4-dihydropyridin-3-yl}carbonyloxy)methyl]-1H-1,2,3-triazol-1-yl}-3,6,9,12,15-pentaoxaheptadecan-1-yl)-1H-1,2,3-triazol-4-yl]methyl 5-ethyl 4-[3-(m-bromophenyl)-5-methyl-1,2-oxazol-4-yl]-2,6-dimethyl-1,4-dihydropyridine-3,5-dicarboxylate] | 
8 | 4.858 |  | CCOC(=O)C1=C(C)NC(C)=C(C(=O)OCc2cn(CCOCCOCCOCCOCCOCCn3cc(COC(=O)C4=C(C)NC(C)=C(C(=O)OCC)C4c4c(-c5ccccc5Br)noc4C)nn3)nn2)C1c1c(-c2ccccc2Br)noc1C (stereo not shown) [4b, 3-[1-(17-{4-[({4-[3-(o-Bromophenyl)-5-methyl-1,2-oxazol-4-yl]-5-(ethoxycarbonyl)-2,6-dimethyl-1,4-dihydropyridin-3-yl}carbonyloxy)methyl]-1H-1,2,3-triazol-1-yl}-3,6,9,12,15-pentaoxaheptadecan-1-yl)-1H-1,2,3-triazol-4-yl]methyl 5-ethyl 4-[3-(o-bromophenyl)-5-methyl-1,2-oxazol-4-yl]-2,6-dimethyl-1,4-dihydropyridine-3,5-dicarboxylate] | VGCC (IC50, nM) [2]: essentially abolished
